The source of these data is patent publication US20100256145A1, “USE OF KCNQ POTASSIUM CHANNEL OPENERS FOR REDUCING SYMPTOMS OF OR TREATING DISORDERS OR CONDITIONS WHEREIN THE DOPAMINERGIC SYSTEM IS DISRUPTED” (H. LUNDBECK A/S, priority 2007, published 2010).

SMILES strings stand for the structures.

Data set [1] has as its system sensitised amphetamine response (hyperactivity) in mice. The data set can be described thus: Sensitised behavioural response to amphetamine in mice. Format: in vivo. The settings on record: Mus musculus; amphetamine-pretreated mice; s.c. 30 min before D-amphetamine 1.25 mg/kg challenge; Std. Dev. in brackets; read-out: Inhibition of the sensitised amphetamine response, ED50. The protocol: (§1) Subjects. Male NMRI mice (Charles River) weighing approx. 35 g are used. […] 12 mice are used pr experimental group.
Experimental procedure. […] For the 17 days between the last day of pre-treatment and the test day, the animals are kept in their homecage receiving the care as described above. The experiment is performed under normal light conditions in an undisturbed room. The mice are treated with test substance or vehicle and placed individually in the test cages for 30 min. […] 5×8 infrared light sources and photocells interspaced by 4 cm monitor the locomotor activity. The light beams cross the cage 1.8 cm above the bottom of the cage.
(§2) Administration of compounds.
Data analyses. The total counts obtained in the 30 min test are averaged pr animal group and used for calculation of drug effects in the following manner: The average motility induced by an amphetamine challenge in amphetamine-pretreated animals is used as the sensitised response. The average motility induced by a vehicle challenge to vehicle-pretreated animals is used as a baseline motility response. […] Similarly an ED50 for inhibiting baseline motility is calculated by expressed the motility response in vehicle-pretreated, vehicle-challenged, drug-treated animals relative to the baseline motility response. A therapeutic index value is subsequently calculated by dividing the first ED50 by the second.

The test system of another data set is baseline motility. The data set can be described thus: Baseline motility in mice (vehicle-pretreated, vehicle-challenged). Format: in vivo, mouse. The following applies: s.c., Std. Dev. in brackets. The protocol: as §1
Experimental procedure. All mice are pre-treated once daily for five days with either d-amphetamine sulphate (2.5 mg/kg s.c.) or saline (10 ml/kg). For the 17 days between the last day of pre-treatment and the test day, the animals are kept in their homecage receiving the care as described above. The experiment is performed under normal light conditions in an undisturbed room. The mice are treated with test substance or vehicle and placed individually in the test cages for 30 min. The mice are then challenged with D-amphetamine sulphate (1.25 mg/kg s.c.) or saline (5 ml/kg) and replaced in the test-cage and data acquisition is begun. 5×8 infrared light sources and photocells interspaced by 4 cm monitor the locomotor activity. The light beams cross the cage 1.8 cm above the bottom of the cage.
as §2
Data analyses. […] Similarly an ED50 for inhibiting baseline motility is calculated by expressed the motility response in vehicle-pretreated, vehicle-challenged, drug-treated animals relative to the baseline motility response. A therapeutic index value is subsequently calculated by dividing the first ED50 by the second.

The ED50 is the midpoint of the dose-response relation. Consider `Cc1nc(N2CCOCC2)nc(C)c1NC(=O)Cc1ccc(F)cc1` [N-(4,6-Dimethyl-2-morpholin-4-yl-pyrimidin-5-yl)-2-(4-fluoro-phenyl)-acetamide], for which the ED50 in data set [1] amounted to 0.4 mg/kg. Take `CCOC(=O)Nc1ccc(NCc2c(C)cc(C)cc2C)cc1N` [[2-Amino-4-(2,4,6-trimethyl-benzylamino)-phenyl]-carbamic acid ethyl ester]: in the data set with baseline motility, the “Inhibition of baseline motility, ED50” value is 4.3 mg/kg.
